The record followed here is patent US9675539B2, “Cosmetic and pharmaceutical compositions and methods using 2-decarboxy-2-phosphinico derivatives” (Duke University, priority 2000, dated 2017).

In general, IC50 refers to the concentration that gives 50% inhibition.

In this test the target is hFP receptor (Homo sapiens (Human), UniProt P43088). Briefly: Radioligand Binding Assay. To be noted: competition with 5 nM (3H) PGF2α on hFP membranes from transfected COS-7 cells; read-out: IC50 the PGF.
hFP receptor, sequence (P43088 whole entry): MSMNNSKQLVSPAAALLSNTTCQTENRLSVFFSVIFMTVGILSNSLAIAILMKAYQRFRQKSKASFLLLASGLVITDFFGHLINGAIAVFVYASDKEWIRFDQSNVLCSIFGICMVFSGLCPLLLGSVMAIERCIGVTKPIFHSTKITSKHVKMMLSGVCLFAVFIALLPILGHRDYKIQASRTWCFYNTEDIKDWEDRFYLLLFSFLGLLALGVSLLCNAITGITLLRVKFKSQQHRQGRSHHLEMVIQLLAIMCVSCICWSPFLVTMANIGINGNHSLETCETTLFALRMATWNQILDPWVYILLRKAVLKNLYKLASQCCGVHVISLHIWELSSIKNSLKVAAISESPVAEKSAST

Procedure: IC50 of a prostaglandin can be determined relative to PGF2α using the Radioligand Binding Assay.
In this assay, COS-7 cells are transiently transfected with the hFP recombinant plasmid using LipofectAMINE Reagent. Forty-eight hours later, the transfected cells are washed with Hank's Balanced Salt Solution (HBSS, without CaCl2, MgCl2, MgSO4, or phenol red). The cells are detached with versene, and HBSS is added. The mixture is centrifuged at 200 g for 10 minutes, at 4° C. to pellet the cells. The pellet is resuspended in Phosphate-Buffered Saline-EDTA buffer (PBS; 1 mM EDTA; pH 7.4; 4° C.). […] The mixture is centrifuged at 1000 g for 10 minutes at 4° C. The supernatant is centrifuged at 100,000 g for 60 minutes at 4° C. The pellet is resuspended to 1 mg protein/mL TME buffer (50 mM Tris; 10 mM MgCl2; 0.1 mM EDTA; pH 6.0; 4° C.) based on protein levels measured using the Pierce BCA Protein Assay kit. […] The membrane preparations are then stored at −80° C., until thawed for assay use.
The receptor competition binding assays are developed in a 96 well format. Each well contains 100 g of hFP membrane, 5 nM (3 H) PGF2α, and the various competing compounds in a total volume of 200 L. The plates are incubated at 23° C. for 1 hour. […] The plates are read on a Packard TOPCOUNT® Microplate Scintillation Counter (also available from Packard Instrument Co., Inc.)

On to `CCCCCC(O)/C=C/[C@@H]1[C@@H](C/C=C\CCC[PH](=O)O)[C@@H](O)C[C@H]1O` (stereo partly shown) [Example 1-2], for which the IC50 was 114 nM.
